According to patent US20240366594A1, “Small Molecule Inhibitors of Formation of Neutrophil-Derived Extracellular Traps (NETosis) and Uses Thereof” (The Brigham and Women's Hospital, Inc., priority 2021, published 2024):

Key:
[1] = system: primary human neutrophils; assay: Extracellular DNA release by PMA-activated human neutrophils; format: cell-based; conditions: 1 μM GSK484 for 1 h, then 1 μM PMA for 4 hours; FIG. 5A
Procedure: FIGS. 5A-J. Class I/II HDACs drive NET formation. • A) Quantification of extracellular DNA released by neutrophils treated, or not, with 1 μM GSK484 for 1 h and then stimulated with 1 μM PMA for 4 hours. Unstimulated, neutrophils not treated with drugs were used as a control. • B) Freshly purified human neutrophils were treated with the indicated HDAC inhibitors at different doses (0.08, 0.4, 2 and 10 μM) for 1 hour. Extracellular DNA release was assessed in the supernatant 3 hours after PMA stimulation. The dotted line represents the amount of DNA released from neutrophils treated with PMA alone. […] NETosis induction was measured as level of anti-CitH3 fluorescent signal. […] NET induction was measured as in (C). […] NETosis induction was measured as level of anti-CitH3 fluorescent signal. […] NET induction was measured as in (F). • H, I) Freshly isolated neutrophils from two different donors were treated with different doses of ricolinostat, citarinostat (10, 2, 0.4, 0.08 μM) or GSK484 (10, 5, 2 μM) for 1 h and then stimulated with 1 μM PMA. NET induction was measured as level of anti-CitH3 fluorescent signal (H) and by microscopy as number of cells positive for CitH3 signal per field of view (FOV) (I). […] NET induction was measured as level of anti-CitH3 fluorescent signal. […] Statistics were calculated using One-way ANOVA (A, E, I) and Two-way ANOVA (B, F, G, H, L). […]

human neutrophils = assay: ROS production (luminol-HRP luminescence) in human neutrophils; format: cell-based; conditions: ricolinostat 10 μM, 1 μM PMA 3 h; FIG. 1G left
Procedure: FIGS. 1A-H. Class I/II HDACs drive NET formation • (A and B) Freshly purified human (A) or mouse (B) neutrophils were treated with the indicated HDAC inhibitors at different doses (10, 2, 0.4, 0.08 μM), or with GSK484 (10 μM), for 1 h and then stimulated with 1 μM PMA for 3 h. Cells were fixed and stained with anti-citrullinated histone H3 (CitH3) antibody. NETosis induction was measured as the level of anti-CitH3 fluorescent signal. PMA alone represents 100% of NET induction. “-”: Cells treated with the highest dose of the indicated drug but not activated with PMA. • (C and D) Human neutrophils were treated, or not, with ricolinostat or GSK484 and then stimulated with 1 μM PMA. NETosis induction was measured as area of nuclei stained with DAPI. (C) 3D reconstruction of nuclei in each treatment (grid size 7.8 μm). (D) Quantification of DAPI signal from multiple fields of view (D) (n=9 for unstimulated, not pretreated with any drug [NT] and ricolinostat, n=7 for GSK484). • (E and F) Human neutrophils were treated as in (C-D), and immunoblot analysis of the indicated proteins was performed. Relative quantification of band intensity was analyzed with ImageJ software (F). White violins plots depict the quantification of histone H3 acetylation; red violin plots depict the quantification of histone H3 citrullination. […] ROS production was measured by luminescence with luminol-HRP. […]

| Structure (SMILES) | extracellular DNA released by PMA-treated neutrophils [1] | reactive oxygen species (ROS) production (human neutrophils) |
| --- | --- | --- |
| COc1cc(C(=O)N2CC[C@@H](O)[C@@H](N)C2)cc2nc(-c3cc4ccccc4n3CC3CC3)n(C)c12 [GSK484] | significant decrease | – |
| O=C(CCCCCCNC(=O)c1cnc(N(c2ccccc2)c2ccccc2)nc1)NO [ricolinostat] | – | did not alter |
